Reference: article PMC7917164 (Bioorganic & medicinal chemistry, 2020)
Structures can show the parent of a compound that is named as a salt.

Test system: Aβ42 levels (γ-secretase modulation) in SHSY5Y-APP cells
Assay: Cell-based ELISA assay for measuring extracellular Aβ42 levels
Design: species or system human
Details: not given

Row | Compound | Parent Aβ42 IC50 [nM]
1 | COc1nc(-c2csc(Nc3c4c(nn3C3CCOC3)CCCC4)n2)ccc1-n1cnc(C)c1 (racemic) [Compound 40, (+/−)-4-(6-methoxy-5-(4-methyl-1H-imidazol-1-yl)pyridin-2-yl)-N-(2-(tetrahydrofuran-3-yl)-4,5,6,7-tetrahydro-2H-indazol-3-yl)thiazol-2-amine] | 289
2 | CCn1nc2c(c1Nc1nc(-c3ccc(-n4cnc(C)c4)c(OC)n3)cs1)C(C)CC2(C)C (racemic) [Compound 72, (+/−)-N-(2-ethyl-4,6,6-trimethyl-2,4,5,6-tetrahydrocyclopenta[c]pyrazol-3-yl)-4-(6-methoxy-5-(4-methyl-1H-imidazol-1-yl)pyridin-2-yl)thiazol-2-amine] | 49
3 | CCCn1nc2c(c1Nc1nc(-c3ccc(-n4cnc(C)c4)c(OC)n3)cs1)CCCC2 [Compound 34, 4-(6-methoxy-5-(4-methyl-1H-imidazol-1-yl)pyridin-2-yl)-N-(2-propyl-4,5,6,7-tetrahydro-2H-indazol-3-yl)thiazol-2-amine] | 148
4 | COc1nc(-c2csc(Nc3c4c(nn3C(C)C)CCCC4)n2)ccc1-n1cnc(C)c1 [Compound 35, N-(2-isopropyl-4,5,6,7-tetrahydro-2H-indazol-3-yl)-4-(6-methoxy-5-(4-methyl-1H-imidazol-1-yl)pyridin-2-yl)thiazol-2-amine] | 195
5 | COc1nc(-c2csc(Nc3c4c(nn3C(C)(C)C)CCCC4)n2)ccc1-n1cnc(C)c1 [Compound 36, N-(2-(tert-butyl)-4,5,6,7-tetrahydro-2H-indazol-3-yl)-4-(6-methoxy-5-(4-methyl-1H-imidazol-1-yl)pyridin-2-yl)thiazol-2-amine] | 216
6 | COc1nc(-c2csc(Nc3c4c(nn3C3CCC3)CCCC4)n2)ccc1-n1cnc(C)c1 [Compound 37, N-(2-cyclobutyl-4,5,6,7-tetrahydro-2H-indazol-3-yl)-4-(6-methoxy-5-(4-methyl-1H-imidazol-1-yl)pyridin-2-yl)thiazol-2-amine] | 99
7 | COc1nc(-c2csc(Nc3c4c(nn3C3CCCC3)CCCC4)n2)ccc1-n1cnc(C)c1 [Compound 38, N-(2-cyclopentyl-4,5,6,7-tetrahydro-2H-indazol-3-yl)-4-(6-methoxy-5-(4-methyl-1H-imidazol-1-yl)pyridin-2-yl)thiazol-2-amine] | 225
8 | COc1nc(-c2csc(Nc3c4c(nn3C3CCCCC3)CCCC4)n2)ccc1-n1cnc(C)c1 [Compound 39, N-(2-cyclohexyl-4,5,6,7-tetrahydro-2H-indazol-3-yl)-4-(6-methoxy-5-(4-methyl-1H-imidazol-1-yl)pyridin-2-yl)thiazol-2-amine] | 280
9 | COc1nc(-c2csc(Nc3c4c(nn3C3CCOCC3)CCCC4)n2)ccc1-n1cnc(C)c1 [Compound 41, 4-(6-methoxy-5-(4-methyl-1H-imidazol-1-yl)pyridin-2-yl)-N-(2-(tetrahydro-2H-pyran-4-yl)-4,5,6,7-tetrahydro-2H-indazol-3-yl)thiazol-2-amine] | 766
10 | COc1nc(-c2csc(Nc3c4c(nn3C3CCN(C)CC3)CCCC4)n2)ccc1-n1cnc(C)c1 [Compound 42, 4-(6-methoxy-5-(4-methyl-1H-imidazol-1-yl)pyridin-2-yl)-N-(2-(1-methylpiperidin-4-yl)-4,5,6,7-tetrahydro-2H-indazol-3-yl)thiazol-2-amine] | >1000
11 | COc1nc(-c2csc(Nc3c4c(nn3CCN3CCCCC3)CCCC4)n2)ccc1-n1cnc(C)c1 [Compound 43, 4-(6-methoxy-5-(4-methyl-1H-imidazol-1-yl)pyridin-2-yl)-N-(2-(2-(piperidin-1-yl)ethyl)-4,5,6,7-tetrahydro-2H-indazol-3-yl)thiazol-2-amine] | 475
12 | COc1nc(-c2csc(Nc3c4c(nn3CCN3CCOCC3)CCCC4)n2)ccc1-n1cnc(C)c1 [Compound 44, 4-(6-methoxy-5-(4-methyl-1H-imidazol-1-yl)pyridin-2-yl)-N-(2-(2-morpholinoethyl)-4,5,6,7-tetrahydro-2H-indazol-3-yl)thiazol-2-amine trihydrochloride] | >1000
13 | COc1nc(-c2csc(Nc3c4c(nn3CCCN3CCOCC3)CCCC4)n2)ccc1-n1cnc(C)c1 [Compound 45, 4-(6-methoxy-5-(4-methyl-1H-imidazol-1-yl)pyridin-2-yl)-N-(2-(3-morpholinopropyl)-4,5,6,7-tetrahydro-2H-indazol-3-yl)thiazol-2-amine] | 270
14 | COc1nc(-c2csc(Nc3c4c(nn3CC(F)(F)F)CCCC4)n2)ccc1-n1cnc(C)c1 [Compound 47, 4-(6-methoxy-5-(4-methyl-1H-imidazol-1-yl)pyridin-2-yl)-N-(2-(2,2,2-trifluoroethyl)-4,5,6,7-tetrahydro-2H-indazol-3-yl)thiazol-2-amine] | 179
15 | COCCn1nc2c(c1Nc1nc(-c3ccc(-n4cnc(C)c4)c(OC)n3)cs1)CCCC2 [Compound 48, 4-(6-methoxy-5-(4-methyl-1H-imidazol-1-yl)pyridin-2-yl)-N-(2-(2-methoxyethyl)-4,5,6,7-tetrahydro-2H-indazol-3-yl)thiazol-2-amine] | 272
16 | COc1nc(-c2csc(Nc3c4c(nn3CCO)CCCC4)n2)ccc1-n1cnc(C)c1 [Compound 49, 2-(3-((4-(6-methoxy-5-(4-methyl-1H-imidazol-1-yl)pyridin-2-yl)thiazol-2-yl)amino)-4,5,6,7-tetrahydro-2H-indazol-2-yl)ethanol] | 362
17 | COc1nc(-c2csc(Nc3c4c(nn3CCCO)CCCC4)n2)ccc1-n1cnc(C)c1 [Compound 50, 3-(3-((4-(6-methoxy-5-(4-methyl-1H-imidazol-1-yl)pyridin-2-yl)thiazol-2-yl)amino)-4,5,6,7-tetrahydro-2H-indazol-2-yl)propan-1-ol] | 229
18 | COc1nc(-c2csc(Nc3c4c(nn3CC(C)(C)O)CCCC4)n2)ccc1-n1cnc(C)c1 [Compound 51, 1-(3-((4-(6-methoxy-5-(4-methyl-1H-imidazol-1-yl)pyridin-2-yl)thiazol-2-yl)amino)-4,5,6,7-tetrahydro-2H-indazol-2-yl)-2-methylpropan-2-ol] | 55
19 | CCn1nc2c(c1N(C)c1nc(-c3ccc(-n4cnc(C)c4)c(OC)n3)cs1)CCCC2 [Compound 52, N-(2-ethyl-4,5,6,7-tetrahydro-2H-indazol-3-yl)-4-(6-methoxy-5-(4-methyl-1H-imidazol-1-yl)pyridin-2-yl)-N-methylthiazol-2-amine] | >1000
20 | CCCn1nc(C(C)(C)C)cc1Nc1nc(-c2ccc(-n3cnc(C)c3)c(OC)n2)cs1 [Compound 53, N-(3-(tert-butyl)-1-propyl-1H-pyrazol-5-yl)-4-(6-methoxy-5-(4-methyl-1H-imidazol-1-yl)pyridin-2-yl)thiazol-2-amine dihydrochloride] | 86
21 | COc1nc(-c2csc(Nc3cc(C(C)(C)C)nn3C(C)C)n2)ccc1-n1cnc(C)c1 [Compound 54, N-(3-(tert-butyl)-1-isopropyl-1H-pyrazol-5-yl)-4-(6-methoxy-5-(4-methyl-1H-imidazol-1-yl)pyridine-2-yl)thiazol-2-amine] | 87
22 | COc1nc(-c2csc(Nc3cc(C(C)(C)C)nn3C(C)(C)C)n2)ccc1-n1cnc(C)c1 [Compound 55, N-(1,3-di-tert-butyl-1H-pyrazol-5-yl)-4-(6-methoxy-5-(4-methyl-1H-imidazol-1-yl)pyridin-2-yl)thiazol-2-amine] | 85
23 | COc1nc(-c2csc(Nc3cc(C(C)(C)C)nn3CC(F)(F)F)n2)ccc1-n1cnc(C)c1 [Compound 57, N-(3-(tert-butyl)-1-(2,2,2-trifluoroethyl)-1H-pyrazol-5-yl)-4-(6-methoxy-5-(4-methyl-1H-imidazol-1-yl)pyridin-2-yl)thiazol-2-amine] | 87
24 | CCn1nc(C(C)C)cc1Nc1nc(-c2ccc(-n3cnc(C)c3)c(OC)n2)cs1 [Compound 58, N-(1-ethyl-3-isopropyl-1H-pyrazol-5-yl)-4-(6-methoxy-5-(4-methyl-1H-imidazol-1-yl)pyridin-2-yl)thiazol-2-amine] | 394
25 | COc1nc(-c2csc(Nc3cc(C(F)(F)F)nn3C(C)(C)C)n2)ccc1-n1cnc(C)c1 [Compound 61, N-(1-(tert-butyl)-3-(trifluoromethyl)-1H-pyrazol-5-yl)-4-(6-methoxy-5-(4-methyl-1H-imidazol-1-yl)pyridin-2-yl)thiazol-2-amine] | 121
26 | COc1nc(-c2csc(Nc3cc(C(F)(F)F)nn3CC(F)(F)F)n2)ccc1-n1cnc(C)c1 [Compound 62, 4-(6-methoxy-5-(4-methyl-1H-imidazol-1-yl)pyridin-2-yl)-N-(1-(2,2,2-trifluoroethyl)-3-(trifluoromethyl)-1H-pyrazol-5-yl)thiazol-2-amine] | 771
27 | COc1nc(-c2csc(Nc3c4c(nn3C(C)C)CCC4)n2)ccc1-n1cnc(C)c1 [Compound 65, N-(2-isopropyl-2,4,5,6-tetrahydrocyclopenta[c]pyrazol-3-yl)-4-(6-methoxy-5-(4-methyl-1H-imidazol-1-yl)pyridin-2-yl)thiazol-2-amine] | 66
28 | COc1nc(-c2csc(Nc3c4c(nn3C(C)(C)C)CCC4)n2)ccc1-n1cnc(C)c1 [Compound 66, N-(2-(tert-butyl)-2,4,5,6-tetrahydrocyclopenta[c]pyrazol-3-yl)-4-(6-methoxy-5-(4-methyl-1H-imidazol-1-yl)pyridin-2-yl)thiazol-2-amine] | 175

Same assay, conditions: ratio of Aβ42 IC50 values

Row | Compound | Loss in activity (Aβ42) versus the parent fluorophenyl compound
29 | CCn1nc2c(c1Nc1nc(-c3ccc(-n4cnc(C)c4)cc3)cs1)CCCC2 [Compound 22a] | greater than 4 fold
30 | Cc1cn(-c2ccc(-c3csc(Nc4c5c(nn4C)CCCC5)n3)cc2)cn1 [Compound 31a] | greater than 2 fold
31 | CCn1nc(C(C)(C)C)cc1Nc1nc(-c2ccc(-n3cnc(C)c3)cc2)cs1 [Compound 33a] | greater than 2 fold
